In US20240052028A1, “ENHANCEMENT OF ANTI-TUMOR PHAGOCYTOSIS” (The Board of Trustees of the Leland Stanford Junior …, priority 2020, published 2024):

Tests used:
Format in all cases: cell-based, mouse
Safe^KO Ramos cells = experiment: Time-lapse phagocytosis assay, uptake of pHrodo-labeled Safe^KO Ramos cells by J774 macrophages with anti-CD20 antibodies and GPR84 agonists; conditions: anti-CD20 antibodies, GPR84 agonist added (FIG. 4D)
Description: (§1) Time-lapse microscopy assay for phagocytosis J774 cells were lifted by scraping, counted, and plated in 24 well tissue culture plates at a density of 100,000 cells per well in 0.5 ml media 48 h prior to the start of the experiment. At 24 h after plating, media was aspirated and replaced with fresh media containing 10 ng ml^−1 lipopolysaccharide (LPS) (Sigma). On the day of the experiment, target cells that had been transduced with sgRNAs, co-expressed with GFP and PuroR, and selected with puromycin as described above, were lifted, pelleted, and counted. Cells were washed three times in dPBS, incubated in dPBS containing 6.6 ng ml-1 pHrodo-Red succinimidyl ester (Thermo Fisher) at a cell concentration of 1M ml^−1 for 30 minutes, washed once, and resuspended in DMEM supplemented with 2 mM glutamine, 100 units ml^−1 penicillin, […] streptomycin and 10% heat-inactivated FCS, and containing anti-CD20, anti-CD30, and/or anti-CD47 antibodies, as indicated, at a cell concentration of 1M ml^−1. 220 μl of cell suspensions was added to each well. Plates were transferred to an incubator and imaged every 30 or 60 minutes using an Incucyte (Essen). Total red intensity for each well, averaged over 16 images per well, was calculated after applying a threshold for red intensity that excluded most or all cells at the first time point using top-hat background subtraction. Reported values represent the mean total red fluorescence intensity at each timepoint, minus the total red fluorescence at the initial timepoint (to remove signal from occasional autofluorescent debris), normalized to the initial total green fluorescence signal (to account for small variations in target cell density), of duplicate, triplicate, or quadruplicate wells, as indicated in the legend. […]

APMAP^KO Ramos cells = experiment: Time-lapse phagocytosis assay, uptake of pHrodo-labeled APMAP^KO Ramos cells by J774 macrophages with anti-CD20 antibodies and GPR84 agonists; conditions: at high concentrations of agonist, anti-CD20 antibodies (FIG. 12C)
Description: as §1

[1] = test system: Ramos Burkitt lymphoma cells; experiment: ADCP of Ramos Burkitt lymphoma cells by LPS-activated J774 macrophages; conditions: in the presence of LPS-activated J774 macrophages
Description: For the screens, cells were split into two conditions, each in duplicate: an untreated control group and ADCP treated group. In the ADCP group, for each round of treatment, Ramos cells were incubated with J774 macrophages, which had been seeded into 15 cm plates 48 h prior (at 5 M cells per plate) and treated with LPS (10 ng ml^−1) starting 24 h prior, in the presence of anti-CD20 antibodies (50 ng ml^−1) (CRISPRko screen) or both anti-CD20 antibodies (50 ng ml^−1) and anti-CD47 antibodies (100 ng ml-1) (CRISPRa screen). 25 M Ramos cells were added to each plate and incubated with J774 macrophages for 24 h, and were then removed from the macrophage-containing plates via two rounds of washing with complete RPMI media. Ramos cells were then allowed to recover in T-150 flasks for 24-72 h before the next round of treatment. At the end of the screen, 300 million cells were recovered from each condition and pelleted by centrifugation. […] The sgRNA sequences were amplified and sequenced using an Illumina NextSeq with ˜40 million reads per condition; ˜200× coverage per library element). […]
To establish a scalable platform for genetic screening for regulators of ADCP, conditions for antibody-stimulated uptake of cancer cells by macrophage cell lines were optimized, which, unlike primary macrophages, can readily be cultured at the ultra-high scales necessary for screening. […]

Molecule	antibody-dependent phagocytosis of Safe^KO cells (Safe^KO Ramos cells)	uptake of APMAP^KO cells (APMAP^KO Ramos cells)	phagocytosis of Ramos cells [1]
CCCCCCCCNc1cc(=O)[nH]c(=O)[nH]1 [6-OAU, (octylamino) pyrimidine-2,4(1H,3H)-dione]	stimulated	inhibited	
rituximab-biosimilar anti-CD20 antibodies: rituximab-biosimilar anti-CD20 antibodies used to drive ADCP			high rates of phagocytosis
CCCCCCSc1nc(O)cc(=O)[nH]1 [ZQ-16]	stimulated	inhibited	
CCCCCCCCCC(=O)O [capric acid]	stimulated	inhibited	
